Experimental data: patent publication US6660742B2, “Compositions and methods of the use thereof achiral analogues of CC-1065 and the duocarmycins” (priority 2000, dated 2003)
Values joined by “and” are separate entries in the source; they are usually repeats but may differ in a detail not shown here. Equal values may be shown once. Read-outs that look alike come from different tables or passages of the source.

Assays:
SW-620 = assay: NCI screen, SW-620 (Colon Cancer); format: cell-based, human
Method: (§1) The compounds of this invention were also tested against the panel of 60 human cancer cell lines at the National Cancer Institute, Bethesda, Md. […] The cytrotoxicity studies were conducted using a 48 hour exposure, and measuring the optical density of sulforhodamide B-derived color.

IGROV1 = assay: NCI screen, IGROV1 (Ovarian Cancer); format: cell-based, human
Method: as §1

ACHN = format: cell-based, human
MDA-MB-435 = assay: NCI screen, MDA-MB-435 (Breast Cancer); format: cell-based, human
Method: as §1

MDA-MB-231/ATCC = conditions: MDA-MB-231/ATCC
SR = assay: NCI screen, SR (Leukemia)
Method: as §1

K-562 = assay: NCI screen, K-562 (Leukemia)
Method: as §1

SF-268 = assay: NCI screen, SF-268 (CNS Cancer)
Method: (§2) The compounds of this invention were also tested against the panel of 60 human cancer cell lines at the National Cancer Institute, Bethesda, Md. (44). The cytrotoxicity studies were conducted using a 48 hour exposure, and measuring the optical density of sulforhodamide B-derived color.

SNB-19 = assay: NCI screen, SNB-19 (CNS Cancer)
Method: as §1

SNB-75 = assay: NCI screen, SNB-75 (CNS Cancer)
Method: as §1

786-0 = assay: NCI screen, 786-0 (Renal Cancer)
Method: as §1

SN12C = assay: NCI screen, SN12C (Renal Cancer)
Method: as §1

CAKI-1 = assay: NCI screen, CAKI-1 (Renal Cancer)
Method: as §1

MDA-N = assay: NCI screen, MDA-N (Breast Cancer)
Method: as §1

HCT-116 = assay: NCI screen, HCT-116 (Colon Cancer)
Method: as §1

BT-549 = assay: NCI screen, BT-549 (Breast Cancer)
Method: as §2

PC-3 = assay: NCI screen, PC-3 (Prostrate Cancer)
Method: as §1

OVCAR-3 = assay: NCI screen, OVCAR-3 (Ovarian Cancer)
Method: as §1

HOP-62 = assay: NCI screen, HOP-62 (Non-Small Cell Lung Cancer)
Method: as §1

NCI-H522 = assay: NCI screen, NCI-H522 (Non-Small Cell Lung Cancer)
Method: as §1

With `O=C(Nc1cc(O)ccc1CCCl)c1cc2cc(NC(=O)c3cc4ccccc4o3)ccc2[nH]1` [Compound 1, 4-(2-Chloroethyl)-3-[5-(5-benzofuran-2-carboxamido)indole-2-carboxamido]phenol] the GI50 (SW-620) was 2010 nM, the TGI (SW-620) was 8.19E−06 Molar and the “Percent Growth” value (SW-620; Log10 Concentration −4.0) was −66%. The “Percent Growth” value (SW-620; Log10 Concentration −8.0) was 96%, the “Percent Growth” value (IGROV1) was −65% and the GI50 (IGROV1; IGROV1) was 1500 nM. For the same molecule, the TGI (IGROV1; IGROV1) was 3.41E−06 Molar, the “Percent Growth” value (IGROV1; IGROV1, Log10 Concentration −4.0) was −94% and the “Percent Growth” value (IGROV1; IGROV1, Log10 Concentration −6.0) was 75%. For the same molecule, the “Percent Growth” value (IGROV1; IGROV1, Log10 Concentration −7.0) was 98%, the “Percent Growth” value (IGROV1; IGROV1, Log10 Concentration −8.0) was 93% and the GI50 (ACHN) was 1530 nM. The TGI (ACHN) was 5.55E−06 Molar, the GI50 (MDA-MB-435) was 1890 nM and the TGI (MDA-MB-435) was 3.75E−06 Molar. The “Percent Growth” value (MDA-MB-435; Log10 Concentration −4.0) was −94%, the “Percent Growth” value (MDA-MB-435; Log10 Concentration −6.0) was 96% and the GI50 (A549/ATCC) was 1980 nM. The TGI (A549/ATCC) was 6.58E−06 Molar, the “Percent Growth” value (A549/ATCC; Log10 Concentration −4.0) was −100% and the “Percent Growth” value (A549/ATCC; Log10 Concentration −6.0) was 78%. The “Percent Growth” value (A549/ATCC; Log10 Concentration −8.0) was 96%, the GI50 (HOP-92) was 2620 nM and the TGI (HOP-92) was 5.53E−06 Molar. The “Percent Growth” value (HOP-92; Log10 Concentration −4.0) was −92%, the “Percent Growth” value (HOP-92; Log10 Concentration −8.0) was 94% and the GI50 (MDA-MB-231/ATCC) was 2430 nM. For the same molecule, the TGI (MDA-MB-231/ATCC) was 7.10E−06 Molar, the “Percent Growth” value (MDA-MB-231/ATCC; Log10 Concentration −4.0) was −65% and the “Percent Growth” value (MDA-MB-231/ATCC; Log10 Concentration −5.0) was −16%. The “Percent Growth” value (MDA-MB-231/ATCC; Log10 Concentration −6.0) was 92%, the “Percent Growth” value (MDA-MB-231/ATCC; Log10 Concentration −7.0) was 97% and the “Percent Growth” value (MDA-MB-231/ATCC; Log10 Concentration −8.0) was 94%. For the same molecule, the GI50 (SR) was 852 nM, the TGI (SR) was 8.12E−06 Molar and the “Percent Growth” value (SR; Log10 Concentration −4.0) was −7%. The GI50 (K-562) was 2880 nM, the TGI (K-562) was 9.59E−06 Molar and the “Percent Growth” value (K-562; Log10 Concentration −4.0) was −5%. The “Percent Growth” value (SF-268) was 68% and 70% and 88%, the GI50 (SF-268; SF-268) was 13400 nM and the TGI (SF-268; SF-268) was 2.78E−05 Molar. The “Percent Growth” value (SF-268; SF-268, Log10 Concentration −4.0) was −88%, the “Percent Growth” value (SF-268; SF-268, Log10 Concentration −7.0) was 88% and the GI50 (SNB-19) was 3530 nM. The TGI (SNB-19) was 1.38E−05 Molar, the “Percent Growth” value (SNB-19; Log10 Concentration −4.0) was −75% and the “Percent Growth” value (SNB-75) was 65% and 56% and 93%. For the same molecule, the GI50 (SNB-75; SNB-75) was 18600 nM, the TGI (SNB-75; SNB-75) was 3.32E−05 Molar and the “Percent Growth” value (SNB-75; SNB-75, Log10 Concentration −4.0) was −96%. For the same molecule, the GI50 (786-0) was 2620 nM, the TGI (786-0) was 1.07E−05 Molar and the “Percent Growth” value (786-0; Log10 Concentration −4.0) was −50%. For the same molecule, the “Percent Growth” value (786-0; Log10 Concentration −5.0) was 2%, the “Percent Growth” value (786-0; Log10 Concentration −6.0) was 85% and the “Percent Growth” value (786-0; Log10 Concentration −7.0) was 101%. For the same molecule, the “Percent Growth” value (786-0; Log10 Concentration −8.0) was 98%, the GI50 (SN12C) was 3100 nM and the TGI (SN12C) was 9.41E−06 Molar. For the same molecule, the “Percent Growth” value (SN12C; Log10 Concentration −4.0) was −77%, the “Percent Growth” value (SN12C; Log10 Concentration −5.0) was −3% and the “Percent Growth” value (SN12C; Log10 Concentration −7.0) was 102%. For the same molecule, the “Percent Growth” value (CAKI-1) was 87% and 82%, the GI50 (CAKI-1; CAKI-1) was 2300 nM and the TGI (CAKI-1; CAKI-1) was 7.19E−06 Molar. For the same molecule, the “Percent Growth” value (CAKI-1; CAKI-1, Log10 Concentration −4.0) was −95%, the “Percent Growth” value (CAKI-1; CAKI-1, Log10 Concentration −5.0) was −14% and the “Percent Growth” value (CAKI-1; CAKI-1, Log10 Concentration −8.0) was 95%. The “Percent Growth” value (MDA-N) was −35%, the GI50 (MDA-N; MDA-N) was 2280 nM and the TGI (MDA-N; MDA-N) was 5.47E−06 Molar. The “Percent Growth” value (MDA-N; MDA-N, Log10 Concentration −4.0) was −87%, the “Percent Growth” value (MDA-N; MDA-N, Log10 Concentration −6.0) was 97% and the “Percent Growth” value (MDA-N; MDA-N, Log10 Concentration −7.0) was 103%. For the same molecule, the “Percent Growth” value (MDA-N; MDA-N, Log10 Concentration −8.0) was 100%, the “Percent Growth” value (HCT-116) was 81% and 99% and the GI50 (HCT-116; HCT-116) was 1940 nM. For the same molecule, the TGI (HCT-116; HCT-116) was 5.73E−06 Molar, the “Percent Growth” value (HCT-116; HCT-116, Log10 Concentration −4.0) was −89% and the “Percent Growth” value (HCT-116; HCT-116, Log10 Concentration −5.0) was −26%. The “Percent Growth” value (HCT-116; HCT-116, Log10 Concentration −7.0) was 95%, the “Percent Growth” value (BT-549) was 110% and the GI50 (BT-549; BT-549) was 3600 nM. For the same molecule, the TGI (BT-549; BT-549) was 2.05E−05 Molar, the “Percent Growth” value (BT-549; BT-549, Log10 Concentration −4.0) was −20% and the “Percent Growth” value (BT-549; BT-549, Log10 Concentration −5.0) was 9%. The “Percent Growth” value (BT-549; BT-549, Log10 Concentration −6.0) was 101%, the “Percent Growth” value (BT-549; BT-549, Log10 Concentration −7.0) was 103% and the GI50 (PC-3) was 969 nM. The TGI (PC-3) was 3.99E−06 Molar, the “Percent Growth” value (PC-3; Log10 Concentration −4.0) was −99% and the “Percent Growth” value (PC-3; Log10 Concentration −7.0) was 98%. The “Percent Growth” value (PC-3; Log10 Concentration −8.0) was 96%, the GI50 (OVCAR-3) was 2130 nM and the TGI (OVCAR-3) was 4.69E−06 Molar. For the same molecule, the “Percent Growth” value (OVCAR-3; Log10 Concentration −4.0) was −99%, the “Percent Growth” value (OVCAR-3; Log10 Concentration −7.0) was 102% and the “Percent Growth” value (OVCAR-3; Log10 Concentration −8.0) was 94%. For the same molecule, the GI50 (HOP-62) was 453 nM, the TGI (HOP-62) was 3.07E−06 Molar and the “Percent Growth” value (HOP-62; Log10 Concentration −4.0) was −98%. For the same molecule, the GI50 (NCI-H522) was 933 nM, the TGI (NCI-H522) was 3.00E−06 Molar and the “Percent Growth” value (NCI-H522; Log10 Concentration −4.0) was −80%. For the same molecule, the “Percent Growth” value (NCI-H522; Log10 Concentration −7.0) was 99% and the “Percent Growth” value (NCI-H522; Log10 Concentration −8.0) was 98%.
